Test results as given in ChEMBL document CHEMBL5344454 (ACS Med Chem Lett, 2024).

Assay: Inhibition of Huntingtin polyQ 49 mutant in Huntington's disease patient derived human iPSC cells incubated for 48 hrs by HTRF assay
Format: cell-based
Compound `Cc1cn2nc(-c3cc(F)c4nc(C5CCN(C6COC6)CC5)cn4c3)cc(C)c2n1` has an IC50 of less than 0.1 µM.
`Cc1cn2nc(-c3cc(F)c4nc(N5CCC(N(C)C)CC5)oc4c3)cc(C(F)(F)F)c2n1` gave an IC50 of less than 0.1 µM.
`Cc1cn2nc(-c3cc(F)c4nc(C5CCNC5)cn4c3)cc(C)c2n1` (stereo unspecified) gave an IC50 of less than 0.1 µM.
For `Cc1cn2nc(-c3cc(F)c4nc(C5CCNCC5)cn4c3)cc(C)c2n1`, the IC50 was less than 0.1 µM.
Compound `Cc1cn2nc(-c3cc(F)c4nc(C5CCN(C6CC6)CC5)cn4c3)cc(C(F)F)c2n1` has an IC50 of less than 0.1 µM.
With `Cc1cn2nc(-c3cc(F)c4nn(C5CCNCC5)nc4c3)cc(C(F)F)c2n1` the IC50 was less than 0.1 µM.
